From ChEMBL document CHEMBL3608209, “N-Aryl benzenesulfonamide inhibitors of [3H]-thymidine incorporation and β-catenin signaling in human hepatocyte-derived Huh-7 carcinoma cells” (Bioorg Med Chem Lett, 2015) come the findings set out here.

Experiment [1] deals with Huh-7. Briefly: Inhibition of Wnt/beta catenin in human HuH7 cells assessed as [3H]-thymidine incorporation at 10 uM by scintillation counting analysis relative to DMSO-treated control. Type of experiment: cell-based. On the technique in general: Uptake of a labelled nucleoside into DNA is a usual measure of proliferation.
Experiment [2] concerns Huh-7. Briefly: Inhibition of Wnt/beta catenin in human HuH7 cells assessed as [3H]-thymidine incorporation at 10 uM by scintillation counting analysis relative to FH535. Type of experiment: cell-based.
The test system of experiment [3] is Huh-7. Briefly: Inhibition of Wnt/beta catenin in human HuH7 cells assessed as decrease in TCF/LEF-dependent promoter activation at 10 uM after 36 hrs by TOPFlash luciferase reporter gene assay relative to control. The class given is cell-based. On the technique in general: A reporter such as luciferase makes a cellular process visible.
The test system of experiment [4] is Huh-7. Nature of the experiment: Inhibition of Wnt/beta catenin in human HuH7 cells assessed as [3H]-thymidine incorporation at 10 uM by scintillation counting analysis relative to DMSO-treated control; values are per cent of control.

As usually defined, the inhibition is the share of the control response that was lost under treatment. Consider `O=S(=O)(Nc1cccc(OCc2ccccc2)c1)c1c(Cl)cccc1Cl`, for which the results for the inhibition in the experiment with Huh-7 [1] and in the experiment with Huh-7 [3] were 31% and 53%, respectively. Also, the fold change (FC) in the experiment on Huh-7 [2] was found to be 0.9. Also, the level, % of control in the experiment on Huh-7 [4] is 69%.

For `O=C(c1ccccc1)c1ccc(NS(=O)(=O)c2c(F)cccc2F)cc1`, the inhibition with Huh-7 [1] is 33%. Further, the fold change (FC) in the experiment with Huh-7 [2] was 0.9. In addition, the level, % of control in the experiment on Huh-7 [4] is 67%.

For `O=C(c1ccccc1)c1ccc(NS(=O)(=O)c2ccccc2)cc1`, the inhibition with Huh-7 [1] worked out at 38%; in the experiment on Huh-7 [3], 46%. For the same compound, the fold change (FC) in the experiment with Huh-7 [2] stood at 1.1. In the experiment with Huh-7 [4], the level, % of control was determined as 62%.

Regarding `Cc1cc(CO)ccc1NS(=O)(=O)c1cc(Cl)ccc1Cl`, the inhibition in the experiment with Huh-7 [1] came out at 67%. Besides, in the experiment on Huh-7 [2], the fold change (FC) stood at 1.9. Also, the level, % of control in the experiment on Huh-7 [4] worked out at 33%.

Take `Cc1cc(CO)ccc1NS(=O)(=O)c1c(Cl)cccc1Cl`: the inhibition in the experiment on Huh-7 [1] is 73%; in the experiment with Huh-7 [3], 13%. Also, the fold change (FC) with Huh-7 [2] came to 2. The level, % of control in the experiment with Huh-7 [4] turned out to be 27%.

In the case of `O=C(c1ccccc1)c1ccc(NS(=O)(=O)c2c(Cl)cccc2Cl)cc1`, the inhibition with Huh-7 [1] turned out to be 33%. In addition, the fold change (FC) in the experiment on Huh-7 [2] is 0.9. Also, the level, % of control in the experiment with Huh-7 [4] is 67%.

As for `COC(=O)c1cc(F)ccc1NS(=O)(=O)c1cc(Cl)ccc1Cl`, the inhibition with Huh-7 [1] stood at 7%; in the experiment on Huh-7 [3], 61%. Also, the fold change (FC) in the experiment with Huh-7 [2] is 0.2. Besides, the level, % of control in the experiment on Huh-7 [4] stood at 93%.

In the case of `O=S(=O)(Nc1cccc(OCc2ccccc2)c1)c1ccccc1`, the inhibition in the experiment on Huh-7 [1] was 29%. Also, the fold change (FC) with Huh-7 [2] came out at 0.8. Further, in the experiment with Huh-7 [4], the level, % of control was 71%.

With `COC(=O)c1ccc(NS(=O)(=O)c2cc(Cl)ccc2Cl)c(C)c1`, the inhibition in the experiment on Huh-7 [1] worked out at 18%. Further, the fold change (FC) in the experiment with Huh-7 [2] was found to be 0.5. In addition, the level, % of control in the experiment on Huh-7 [4] stood at 82%.

`O=[N+]([O-])c1ccc(NS(=O)(=O)c2ccccc2)c2ccccc12`: the inhibition in the experiment with Huh-7 [1] came to 42%; with Huh-7 [3] it was 72%. Further, the fold change (FC) with Huh-7 [2] turned out to be 1.2. For the same compound, the level, % of control in the experiment on Huh-7 [4] came to 58%.

Turning to `Cc1cc([N+](=O)[O-])ccc1NS(=O)(=O)c1cc(Cl)ccc1Cl`, the figures for the inhibition in the experiment on Huh-7 [1] and with Huh-7 [3] were 36% and 73%, respectively. Besides, the level, % of control in the experiment with Huh-7 [4] is 64%.

As for `Cc1cc(CO)ccc1NS(=O)(=O)c1c(F)cccc1F`, the inhibition with Huh-7 [1] was found to be 38%. In addition, the fold change (FC) with Huh-7 [2] was 1.1. For the same compound, the level, % of control with Huh-7 [4] was found to be 62%.

With `O=[N+]([O-])c1ccc(NS(=O)(=O)c2cc(F)ccc2F)c2ccccc12`, the inhibition stood at 31% in the experiment on Huh-7 [1] and 64% in the experiment on Huh-7 [3]. Further, in the experiment with Huh-7 [2], the fold change (FC) stood at 0.9. Also, the level, % of control in the experiment with Huh-7 [4] stood at 69%.

Regarding `O=[N+]([O-])c1ccc(NS(=O)(=O)c2c(Cl)cccc2Cl)c2ccccc12`, the inhibition in the experiment on Huh-7 [1] is 26%; in the experiment on Huh-7 [3], 47%. In addition, the fold change (FC) in the experiment on Huh-7 [2] is 0.7. The level, % of control in the experiment with Huh-7 [4] is 74%.

In the case of `COC(=O)c1cc(Cl)ccc1NS(=O)(=O)c1cc(Cl)ccc1Cl`, the inhibition in the experiment with Huh-7 [1] was 0%. Besides, the fold change (FC) with Huh-7 [2] was found to be 0. Besides, the level, % of control with Huh-7 [4] stood at 106%.

For the compound `O=S(=O)(Nc1ccccc1Oc1ccccc1)c1c(Cl)cccc1Cl`, the inhibition was 38% in the experiment with Huh-7 [1] and 45% in the experiment on Huh-7 [3]. Also, in the experiment on Huh-7 [2], the fold change (FC) stood at 1.1. Further, the level, % of control in the experiment with Huh-7 [4] was determined as 62%.

As for `O=S(=O)(Nc1ccccc1Oc1ccccc1)c1c(F)cccc1F`, the inhibition in the experiment on Huh-7 [1] worked out at 34%. For the same compound, in the experiment with Huh-7 [2], the fold change (FC) amounted to 0.9. In addition, the level, % of control with Huh-7 [4] was 66%.

On to `O=[N+]([O-])c1ccc(NS(=O)(=O)c2cc(Cl)ccc2Cl)c2ccccc12`, for which the inhibition in the experiment with Huh-7 [1] was determined as 48%. For the same compound, the fold change (FC) with Huh-7 [2] turned out to be 1.3. The level, % of control in the experiment on Huh-7 [4] stood at 52%.

`O=S(=O)(Nc1cccc(OCc2ccccc2)c1)c1c(F)cccc1F`: the inhibition with Huh-7 [1] turned out to be 43%. The fold change (FC) in the experiment with Huh-7 [2] was 1.2. Further, the level, % of control in the experiment on Huh-7 [4] was determined as 57%.

Turning to `Cc1cc(CO)ccc1NS(=O)(=O)c1ccccc1`, in the experiment with Huh-7 [1], the inhibition worked out at 53%. In the experiment on Huh-7 [2], the fold change (FC) amounted to 1.5. Besides, the level, % of control in the experiment with Huh-7 [4] is 47%.

Consider `COC(=O)c1ccc(NS(=O)(=O)c2c(Cl)cccc2Cl)c(C)c1`, for which the inhibition in the experiment on Huh-7 [1] stood at 29%. For the same compound, the fold change (FC) in the experiment on Huh-7 [2] worked out at 0.8. Further, the level, % of control with Huh-7 [4] was 71%.
